This is an account of results in article PMC3493529, “Molecular and Pharmacological Characterization of Serotonin 5-HT2α and 5-HT7 Receptors in the Salivary Glands of the Blowfly Calliphora vicina” (PLoS ONE, 2012).

Where a name gives a salt, the structure may show the parent alone. Read-outs that look alike come from different tables or passages of the source.

Test [1] deals with T1, Cv5-HT7 (Calliphora vicina, UniProt I7IA71). The experiment in a line: cAMP-dependent CNG channel Ca2+ influx (Fluo-4) in Cv5-HT7-expressing flpTM cells, agonists. The test is classed as cell-based. Conditions: Fluo-4 signal, Cv5-HT7-expressing flpTM cells, 100 µM IBMX. The protocol:
(§1) We applied a previously established protocol to generate cell lines that constitutively expressed either Cv5-HT2α or Cv5-HT7. […] (flpTM cells, provided by Sibion biosciences GmbH, Jülich, Germany). Approximately 8 µg of the respective expression vectors were introduced into ∼4×10^5 cells by a modified calcium-phosphate method. Stably transfected cells were selected in the presence of the antibiotics Blasticidin (0.1 mg/ml; Cv5-HT2α) or G418 (0.8 mg/ml; Cv5-HT7). Expression of Cv5-HT2α and Cv5-HT7 was monitored by Western blotting with commercially available anti-His antibodies (anti-6x His Epitope Tag; Rockland Immunochemicals Inc, Gilbertsville, USA) and anti-HA antibodies (clone 3F10; Roche, Penzberg, Germany), respectively.
(§2) The ability of Cv5-HT2α to induce Ca^2+ signals in the transfected cell line was measured with the Ca^2+-sensitive dye Fluo-4. Similarly, Cv5-HT7-induced cAMP production was indirectly monitored by the cAMP-dependent activation of the cyclic nucleotide-gated ion channel in flpTM cells (see above). The cyclic nucleotide-gated ion channel is permeable to Ca^2+ ions and thus an increase in [cAMP]i leads to an influx of Ca^2+ ions, which can be detected with Fluo-4. […] After 1 h, the loading solution was substituted for dye-free ES. To inhibit cAMP hydrolysis in Cv5-HT7-expressing cells, ES containing 100 µM isobutylmethylxanthine (IBMX) was used. Plates were transferred into a fluorescence reader (FLUOstar Omega; bmg, Offenburg, Germany) and Fluo-4 fluorescence was monitored. […] Fluorescence emission was detected at 520 nm. Once the basal fluorescence in each well had reached a stable value, various concentrations of the respective ligands were added. The resulting changes in Fluo-4 fluorescence were recorded automatically.

Test [2] concerns the target T2, Cv5-HT2α (Calliphora vicina, UniProt I7JA47). The experiment in a line: Ca2+ signals (Fluo-4) in Cv5-HT2α-expressing HEK 293 cells, agonists. The test is classed as cell-based. The protocol: as §1, §2
Test [3] deals with blowfly salivary glands. The experiment in a line: Transepithelial potential (TEP) of blowfly salivary glands, agonists. Further details: key to negative TEP phase / positive TEP phase: ++: high amplitude; +: low amplitude; -: no apparent effect; -/+: variable effect. The test is classed as cell-based, Calliphora vicina. The protocol:
(§3) The abdominal portions of salivary glands were dissected in physiological saline (in mM: 128 NaCl, 10 KCl, 2 CaCl2, 2.7 MgCl2, 3 Na-glutamate, 2.8 maleic acid, 10 D-glucose and 10 Tris-HCl, pH 7.2). Measurements of transepithelial potential (TEP) were performed by the oil-gap method with a DPA-2F differential amplifier (npi Electronic Instruments, Tamm, Germany). Data were sampled and digitized at 1 Hz (KUSB-3102 module for AD-conversion; Keithley, Germering, Germany) by using the software TestPoint (v4.1; Capital Equipment Corp, Billerica, MA, USA) for data acquisition and storage.

Test [4] deals with T2, Cv5-HT2α. The experiment in a line: Inhibition of 5-HT-induced Ca2+ signals in Cv5-HT2α-expressing cells. The test is classed as cell-based. The method, then:
as §1, with “Cv5-HT7. For Cv5-HT2α expression, human embryonic kidney cells (HEK 293; ECACC, Salisbury, UK) were chosen.” for “Cv5-HT7.”
(§4) The ability of Cv5-HT2α to induce Ca^2+ signals in the transfected cell line was measured with the Ca^2+-sensitive dye Fluo-4. Similarly, Cv5-HT7-induced cAMP production was indirectly monitored by the cAMP-dependent activation of the cyclic nucleotide-gated ion channel in flpTM cells (see above). The cyclic nucleotide-gated ion channel is permeable to Ca^2+ ions and thus an increase in [cAMP]i leads to an influx of Ca^2+ ions, which can be detected with Fluo-4. Cells were grown in 96-well plates to a density of ∼3×10^4 (Cv5-HT2α) or 1.5×10^4 (Cv5-HT7) and then incubated in extracellular solution (ES in mM: 120 NaCl, 5 KCl, 2 CaCl2, 2 MgCl2, 10 glucose, 10 HEPES, pH 7.4) containing 3 mM probenecid, 0.02% (w/v) Pluronic® F-127 (Sigma) and 2 µM Fluo-4AM (Invitrogen). After 1 h, the loading solution was substituted for dye-free ES. To inhibit cAMP hydrolysis in Cv5-HT7-expressing cells, ES containing 100 µM isobutylmethylxanthine (IBMX) was used. Plates were transferred into a fluorescence reader (FLUOstar Omega; bmg, Offenburg, Germany) and Fluo-4 fluorescence was monitored. The excitation wavelength was 485 nm. Fluorescence emission was detected at 520 nm. Once the basal fluorescence in each well had reached a stable value, various concentrations of the respective ligands were added. The resulting changes in Fluo-4 fluorescence were recorded automatically.
(§5) Changes in Ca^2+-dependent Fluo-4 signals were registered automatically. Data represent the means±SD of eight replicates. […] Relative fluorescence (%) is normalized to the values obtained with 100 nM 5-HT in the absence of antagonists. […] Relative fluorescence (%) is normalized to the values obtained with 6 nM 5-HT in the absence of antagonists.

Test [5] has as its target T1, Cv5-HT7. The experiment in a line: Inhibition of 5-HT-induced Fluo-4 signals in Cv5-HT7-expressing cells. The test is classed as cell-based. The protocol: as §1, with “Cv5-HT7. For Cv5-HT2α expression, human embryonic kidney cells (HEK 293; ECACC, Salisbury, UK) were chosen.” for “Cv5-HT7.”
as §4, §5

The test system of test [6] is blowfly salivary glands. The experiment in a line: 5-HT-induced TEP response of blowfly salivary glands, antagonists. The test is classed as cell-based, Calliphora vicina. Also noted: key to suppression of the positive TEP phase: ++: complete; +: incomplete; -: no apparent effect; -/+: variable effect; key to suppression of the negative TEP phase: ++: high amplitude; +: low amplitude; -: no apparent effect; -/+: variable effect. Particulars: for reversibility / suppression of the negative TEP phase / suppression of the positive TEP phase: TEP response evoked with 10 nM or 30 nM 5-HT. The method, then:
as §3

[7] abbreviates: in the presence of 100 nM 5-HT, read-out: Cv5-HT2α IC50.
Setting [8] is: in the presence of 6 nM 5-HT, read-out: Cv5-HT7 IC50.
The mark [9] stands for this setting: in the presence of 100 nM 5-HT, read-out: Cv5-HT2α log IC50 (converted).
Where [10] appears, read: in the presence of 6 nM 5-HT, read-out: Cv5-HT7 log IC50 (converted).

T2 sequence (I7JA47 entry or part of it): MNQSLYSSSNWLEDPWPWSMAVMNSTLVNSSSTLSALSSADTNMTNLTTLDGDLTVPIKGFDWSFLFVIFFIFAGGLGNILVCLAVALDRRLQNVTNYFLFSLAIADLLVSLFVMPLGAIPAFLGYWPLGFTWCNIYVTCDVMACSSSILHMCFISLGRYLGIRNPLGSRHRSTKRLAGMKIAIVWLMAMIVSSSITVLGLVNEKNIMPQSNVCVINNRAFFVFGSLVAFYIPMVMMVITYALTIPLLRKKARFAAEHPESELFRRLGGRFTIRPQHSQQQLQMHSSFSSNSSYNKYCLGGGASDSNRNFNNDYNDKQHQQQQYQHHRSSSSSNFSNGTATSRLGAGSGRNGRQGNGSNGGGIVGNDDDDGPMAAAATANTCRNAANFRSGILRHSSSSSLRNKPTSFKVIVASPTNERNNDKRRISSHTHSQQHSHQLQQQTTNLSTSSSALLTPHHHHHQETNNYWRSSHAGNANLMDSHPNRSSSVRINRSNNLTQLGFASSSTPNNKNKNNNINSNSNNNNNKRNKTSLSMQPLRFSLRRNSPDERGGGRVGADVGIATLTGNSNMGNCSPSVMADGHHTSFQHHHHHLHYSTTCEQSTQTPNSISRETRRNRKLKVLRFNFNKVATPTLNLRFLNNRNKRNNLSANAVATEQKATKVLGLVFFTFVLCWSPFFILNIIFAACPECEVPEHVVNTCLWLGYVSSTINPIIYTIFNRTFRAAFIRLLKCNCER
T1 sequence (I7IA71 entry or part of it): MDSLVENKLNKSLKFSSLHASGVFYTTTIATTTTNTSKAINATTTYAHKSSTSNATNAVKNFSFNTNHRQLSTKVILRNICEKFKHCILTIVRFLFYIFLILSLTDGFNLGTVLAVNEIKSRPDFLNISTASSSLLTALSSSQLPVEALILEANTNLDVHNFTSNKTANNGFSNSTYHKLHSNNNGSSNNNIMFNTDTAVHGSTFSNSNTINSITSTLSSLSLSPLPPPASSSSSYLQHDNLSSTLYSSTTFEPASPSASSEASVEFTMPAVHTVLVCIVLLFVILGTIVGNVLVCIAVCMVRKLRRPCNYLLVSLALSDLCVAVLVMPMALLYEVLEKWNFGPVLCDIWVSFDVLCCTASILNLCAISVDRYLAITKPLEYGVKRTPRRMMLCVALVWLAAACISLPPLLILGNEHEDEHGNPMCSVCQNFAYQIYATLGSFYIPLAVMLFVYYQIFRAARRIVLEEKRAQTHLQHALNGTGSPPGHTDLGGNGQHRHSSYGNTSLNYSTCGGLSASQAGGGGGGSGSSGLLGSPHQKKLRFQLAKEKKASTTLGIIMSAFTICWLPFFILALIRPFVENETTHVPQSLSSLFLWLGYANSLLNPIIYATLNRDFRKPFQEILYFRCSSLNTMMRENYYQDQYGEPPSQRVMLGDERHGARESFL

A word on the EC50: it is the concentration needed to bring the measured effect to its halfway point. As for `CCCN(CCC)C1CCc2cccc(O)c2C1` (racemic) [8-OH-DPAT, (+/−)-8-hydroxy-2-(dipropylamino)tetralin], the EC50 is 7.9 µM on Cv5-HT7 [1] (read-out: Cv5-HT7 EC50); 7.94 µM at Cv5-HT7 [1] (read-out: Cv5-HT7 log EC50 (converted)); 62 µM at Cv5-HT2α [2] (Cv5-HT2α EC50, Ca2+-dependent Fluo-4 signal, Cv5-HT2α-expressing HEK 293 cells); 61.7 µM at Cv5-HT2α [2] (Cv5-HT2α log EC50, Ca2+-dependent Fluo-4 signal, Cv5-HT2α-expressing HEK 293 cells).

For the compound `NCCc1c[nH]c2ccc(C(N)=O)cc12` [5-CT, 5-carboxamidotryptamine], on Cv5-HT7 [1], the “Cv5-HT7 log EC50” value is listed as −6.37±0.02. Also, the half-maximal effective concentration (EC50) on Cv5-HT7 [1] (read-out: Cv5-HT7 EC50) worked out at 0.43 µM; at Cv5-HT2α [2] (Ca2+-dependent Fluo-4 signal, Cv5-HT2α-expressing HEK 293 cells, read-out: Cv5-HT2α EC50), 51 µM. Besides, the “TEP change of salivary glands” value with blowfly salivary glands [3] (0.3 µM) is listed as “only a positive-going TEP change”; in the test with blowfly salivary glands [3] (concentrations 1 µM), “biphasic TEP response”. Moreover, the “negative TEP phase” value with blowfly salivary glands [3] (0.3 µM) was “-”; in the test with blowfly salivary glands [3] (10 µM) it was “++”. Further, the “positive TEP phase” value is on record as “+” in the test with blowfly salivary glands [3] (0.3 µM) and “++” in the test on blowfly salivary glands [3] (10 µM). Also, the reversibility entry with blowfly salivary glands [3] (0.3 µM) and in the test with blowfly salivary glands [3] (10 µM) was “yes” in each case. The “Cv5-HT2α log EC50” value on Cv5-HT2α [2] (Ca2+-dependent Fluo-4 signal, Cv5-HT2α-expressing HEK 293 cells) is −4.29±0.05.

As usually defined, the IC50 is the concentration that gives 50% inhibition. For `CC1CCN(CC[C@H]2CCCN2S(=O)(=O)c2cccc(O)c2)CC1` [SB-269970], the “Cv5-HT2α log IC50” value on Cv5-HT2α [4] (in the presence of 100 nM 5-HT) is listed as −4.27±0.30. Further, the IC50 on Cv5-HT2α [4] (setting [7]) was found to be 53 µM; on Cv5-HT7 [5] (setting [8]), 0.009 µM. The “Cv5-HT7 log IC50” value on Cv5-HT7 [5] (in the presence of 6 nM 5-HT) is listed as −8.06±0.21. Moreover, the “inhibitory efficacy at Cv5-HT7 (reduction of the 5-HT-evoked cellular response)” value at Cv5-HT7 [5] (in the presence of 6 nM 5-HT) was approximately 15%.

On to `CN(C)CCCSc1ccccc1NC(=O)/C=C/c1ccccc1` [cinanserin, cinanserin hydrochloride], for which the concentration for half-maximal inhibition (IC50) was 30 µM on Cv5-HT2α [4] (setting [7]), 29.5 µM at Cv5-HT2α [4] (setting [9]), 0.4 µM at Cv5-HT7 [5] (setting [8]) and 0.398 µM at Cv5-HT7 [5] (setting [10]). The “effect on 5-HT-induced TEP response” value in the test on blowfly salivary glands [6] (10 µM) was “reversibly but incompletely inhibited the positive phase”. In the test on blowfly salivary glands [6] (10 µM), the reversibility result is on record as “yes”. In addition, the “suppression of the negative TEP phase” value with blowfly salivary glands [6] (10 µM) is given as “-”. For the same compound, the “suppression of the positive TEP phase” value with blowfly salivary glands [6] (10 µM) is listed as “+”.

Regarding `CN1CCN(C2=Nc3cc(Cl)ccc3Nc3ccccc32)CC1` [clozapine], in the test on blowfly salivary glands [6] (1 µM, 30 nM 5-HT), the “effect on 5-HT-induced TEP response” value was “completely and selectively inhibited the positive TEP phase”. For the same compound, in the test with blowfly salivary glands [6] (1 µM), the reversibility entry is on record as “yes”, the “suppression of the negative TEP phase” value is “-” and the “suppression of the positive TEP phase” value was “++”.

As for `NCCc1c[nH]cn1` [histamine], the “effect on [Ca2+]i in Cv5-HT2α-expressing cells” value on Cv5-HT2α [2] (1 µM biogenic amine, non-transfected cells as control) was “stimulated Ca^2+ signals”.

For the compound `O=C(c1ccc(F)cc1)C1CCN(CCn2c(=O)[nH]c3ccccc3c2=O)CC1` [ketanserin], the IC50 at Cv5-HT2α [4] (setting [7]) was 14 µM; at Cv5-HT2α [4] (setting [9]), 14.1 µM; at Cv5-HT7 [5] (setting [8]), 1.5 µM; at Cv5-HT7 [5] (setting [10]), 1.45 µM.

Take `CSc1ccc2c(c1)C(N1CCN(C)CC1)Cc1ccccc1S2` (stereo not drawn) [methiothepin]: the “Cv5-HT2α log IC50” value at Cv5-HT2α [4] (in the presence of 100 nM 5-HT) is −5.92±0.06. The IC50 at Cv5-HT2α [4] (setting [7]) stood at 1.2 µM. The “antagonistic effect on Cv5-HT7” value on Cv5-HT7 [5] (high concentrations (10 µM)) is recorded as “slight antagonistic effect”. On Cv5-HT7 [5] (in the presence of 6 nM 5-HT), the “Cv5-HT7 IC50” value is given as “not calculable” and the “Cv5-HT7 log IC50” value was “not calculable”. In the test on blowfly salivary glands [6] (3 µM), the reversibility entry is on record as “no”, the “suppression of the negative TEP phase” value is on record as “-/+” and the “suppression of the positive TEP phase” value is reported as “++”. Also, the “effect on 5-HT-induced TEP response” value with blowfly salivary glands [6] (≥1 µM) is reported as “completely abolished the positive TEP phase”.

As to `Cc1ccc(N(CC2=NCCN2)c2cccc(O)c2)cc1` [phentolamine], the IC50 is 198 µM at Cv5-HT2α [4] (setting [7]), 200 µM on Cv5-HT2α [4] (setting [9]), 4.7 µM on Cv5-HT7 [5] (setting [8]) and 4.68 µM at Cv5-HT7 [5] (setting [10]).

For the compound `O=C(CCCN1CCC2(CC1)C(=O)NCN2c1ccccc1)c1ccc(F)cc1` [spiperone], at Cv5-HT2α [4] (in the presence of 100 nM 5-HT), the “Cv5-HT2α IC50” value is on record as “no effect” and the “Cv5-HT2α log IC50” value is reported as “no effect”. The half-inhibitory concentration (IC50) on Cv5-HT7 [5] (setting [8]) was found to be 0.28 µM. Further, at Cv5-HT7 [5] (setting [10]), the IC50 was 0.275 µM. In the test with blowfly salivary glands [6] (1-10 µM), the reversibility result is listed as “yes”, the “suppression of the negative TEP phase” value is reported as “-” and the “suppression of the positive TEP phase” value is given as “+”. Also, the “effect on 5-HT-induced TEP response” value in the test on blowfly salivary glands [6] (1–10 µM) was “reversibly but incompletely inhibited the positive phase”.

On to `COC(=O)[C@@H]1[C@H]2C[C@H]3c4[nH]c5ccccc5c4CCN3C[C@@H]2CC[C@@H]1O` [yohimbine], for which the IC50 is 2.9 µM at Cv5-HT2α [4] (Cv5-HT2α IC50, in the presence of 100 nM 5-HT); 2.88 µM at Cv5-HT2α [4] (Cv5-HT2α log IC50, in the presence of 100 nM 5-HT); 192 µM on Cv5-HT7 [5] (Cv5-HT7 IC50, in the presence of 6 nM 5-HT); 191 µM on Cv5-HT7 [5] (Cv5-HT7 log IC50, in the presence of 6 nM 5-HT).
